These substances were tested on B1G6 monoclonal antibody (assay: Effect of selected peptides on the neutralization of HIV-1 NDK by B1G6 monoclonal antibody on PBLs). Settings: peptide 100 or 50 μg/ml; B1G6 5 μg/ml.
Type: cell-based
Method: The peptides at a concentration of 100 μg/ml or 50 μg/ml (40 μl or 20 μl of the stock solution and 5 mg/ml) are preincubated with 5 μg/ml of B1G6 (10 μl of a stock solution at 1 mg/ml) in a total volume of 110 μl for 2 hours, in tubes on a water bath at 37° C., with gentle stirring. Next, HIV-1 NDK is added (100 μl of a 2×10^−4 dilution of a stock solution and the tubes are incubated for 1 hour at 37° C. on a water bath. The tubes are then separated into two and each 100 μl is added to 10^6 PBLs on a 24-well plate. The cells are cultured for 3 days at 37° C. under an atmosphere with 5% CO2. On day 3, the cells are washed, placed in culture and propagated for at least 20-25 days in a 25 cm^3 round-bottomed flask. The production of virus is monitored every 3 or 4 days by the assay of reverse transcriptase (RT).

Substance | canceling of the neutralizing effect of B1G6 on the production of HIV-1 NDK by the PBLs
FHPSDIE [F7E] | can cancel the neutralizing effect
IQRTPNIVKW [compound 190] | lost the canceling effect
IQRTPQIVKW [compound 189] | lost the canceling effect
RTPKIQV [R7V] | can cancel the neutralizing effect
TLSRTPKIQV [compound 185] | lost the canceling effect

The substances below were run against T1, R7V (Homo sapiens, UniProt P61769) (assay: Immune response of rabbits immunized with peptide-KLH, serum ELISA on peptide). Settings: not given.
T1 construct: The peptide R7V (RTPKIQV) was extended by 2 amino acids in order to allow the coupling
Type: in vivo, rabbit
Method: The peptide antigen 7AA is coupled to KLH (Keyhole Limpet Hemocyanin) and injected into rabbits in the presence of complete Freund's adjuvant.
The animals are immunized in the presence of complete Freund's adjuvant at D0, D14, D28, D42 and trial bleedings are carried out before immunization on days 35, 49, 56 and 70.
The peptides used are: RV7-KLH, S7K-KLH and F7E-KLH
The peptide R7V (RTPKIQV) was extended by 2 amino acids in order to allow the coupling. The structure used as immunogen is […].
The antibodies of the rabbits immunized 618 were measured by ELISA, where the peptide coupled to various carrier proteins was used at the bottom of the well (either coupled to KLH, to BSA (Bovine Serum Albumin) or MAP (Multiple Antigenic Peptide)).
The diagrams represent the results obtained at 2 dilutions d100 and d1000, that is to say a 1/100 and 1/1000 dilution of the sera, or at different times. […]
→(Ag)final=1 μg/ml • distribute 100 μl/well, that is to 100 ng/well • incubate 2 h at 37° C. or overnight at 4° C. […] (in a humid atmosphere). • 8) Washes (identical to point 2) • 9) Visualization with OPD • dissolve 10 mg OPD in 25 ml of phosphocitrate buffer (0.1 M, pH 5.5) • add at the last moment 10 μl H2O2 • distribute 100 μl/well and incubate 30 min in the dark at room temperature (may be read at 405 nm) • stop the reaction with 50 μl H2SO4 12.5 k. • 10) Reading at 492 nm.

Substance | immune response generated
RTPKIQV [R7V] | good immune response
